# Measurements as given in ChEMBL document CHEMBL1139389, “Discovery of the Poly(ADP-ribose) polymerase (PARP) inhibitor 2-[(R)-2-methylpyrrolidin-2-yl]-1H-benzimidazole-4-carboxamide (ABT-888) for the treatment of cancer” (J Med Chem, 2009).
# System: MX1
# Test: animal or person
# Conditions: Mus musculus, MX1, ip, 816 h, read-out: TGI
compound,measurement,value
O=P1(N(CCCl)CCCl)NCCCO1 (stereo unspecified) [CYCLOPHOSPHAMIDE ANHYDROUS],inhibition in vivo at 12.5 mg/kg/day,73%
